5 compounds from patent US11000033B2, “Ketone or oxime compound, and herbicide” (NISSAN CHEMICAL CORPORATION, priority 2014, dated 2021) can be followed below.

Type in all cases: in vivo
Data set [1] concerns Echinochloa crus-galli var. crus-galli. Briefly: Test Example 4: herbicidal effect by soil treatment (symbol H). In a few lines: (§1)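 Seeds were sown in sterilized diluvial soil, covered with about 1.5 cm of soil, and the soil surface was sprayed with a water-diluted emulsion of the compound at a predetermined rate. Plants grew in a greenhouse at 25° C. to 30° C.; effects were scored visually 3 weeks after application.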

For data set [2], the system named is transplanted rice plant. Briefly: Test Example 1: effect on crop, application before weed generation in submerged conditions (symbol a). Conditions: application herbicide amount 320 g/ha. An outline of the steps: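 Rice at 2.5 leaf stage transplanted into submerged soil (4 cm depth) sown with three weed species; herbicide applied before weed emergence.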
The subject of data set [3] is Amaranthus retroflexus. Briefly: Test Example 4: herbicidal effect by soil treatment (symbol N). In a few lines: as §1
The test system of data set [4] is Setaria viridis. Briefly: Test Example 5: herbicidal effect by foliage application, plastic box (symbol G). Conditions: 320 g/ha, 3 weeks after application. An outline of the steps: (§2)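 Herbicide, formulated as an emulsion and diluted in water, is sprayed onto the aerial parts of 14-day seedlings. These were grown at 25° C. to 30° C. in sterilized diluvial soil; effects are graded after 3 weeks.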

In data set [5] the test system is Digitaria ciliaris. Kind of data set: Test Example 5: herbicidal effect by foliage application, plastic box (symbol F). Conditions: 320 g/ha, 3 weeks after application. An outline of the steps:
as §2

In data set [6] the test system is Avena fatua. Kind of data set: Test Example 5: herbicidal effect by foliage application, plastic box (symbol I). Particulars: 320 g/ha, 3 weeks after application. In a few lines: as §2
Data set [7] concerns rice plant. Kind of data set: Test Example 5: effect on crop by foliage application, plastic box (symbol b). Particulars: 320 g/ha, 3 weeks after application. An outline of the steps: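 Diluvial soil, sterilized and boxed (21 × 13 × 7 cm), received spot-sown seed covered by about 1.5 cm soil; plants were then greenhouse-grown at 25–30° C.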
The subject of data set [8] is Galium spurium. Kind of data set: Test Example 4: herbicidal effect by soil treatment (symbol Q). An excerpt:
Herbicidal Effect Test by Soil Treatment
Sterilized diluvial soil was placed in a plastic box having a length of 21 cm, a width of 13 cm, and a depth of 7 cm. Each of the seeds of Digitaria ciliaris, Setaria viridis, Echinochloa crus-galli var. crus-galli, Avena fatua, Alopecurus myosuroides, Lolium multiflorum Lam., Apera spica-venti, Abutilon theophrasti, Amaranthus retroflexus, Chenopodium album, Stellaria media, Galium spurium, Veronica persica, corn, soybean, rice, wheat, beet, and rapeseed was sowed in a spot-like manner and was covered with the soil of a thickness of about 1.5 cm. Subsequently, the emulsion agent of the compound present invention prepared in accordance with Formulation Example 2 was diluted with water so as to be a predetermined herbicide amount and the diluted emulsion agent was uniformly applied to the surface of the soil with a small-size spray. The plastic box was placed in a greenhouse of 25° C. to 30° C. to grow plant. 3 weeks later from the herbicide application, the effect to each plant was investigated in accordance with the criteria of Test Example 1.

Data set [9] deals with rice. Briefly: Test Example 4: effect on crop by soil treatment (symbol b). Conditions: for b: directly sowed rice plant, effect grade on crop: 320 g/ha. An outline of the steps: (§3)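 Plants grew in a 25° C. to 30° C. greenhouse after spot-sowing of seeds, including beet, rapeseed, wheat and rice, into sterilized diluvial soil under roughly 1.5 cm of cover soil.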
For data set [10], the system named is Abutilon theophrasti. Briefly: Test Example 5: herbicidal effect by foliage application, plastic box (symbol M). Particulars: 320 g/ha, 3 weeks after application. In a few lines:
as §2

The test system of data set [11] is Stellaria media. Briefly: Test Example 5: herbicidal effect by foliage application, plastic box (symbol P). Particulars: 320 g/ha, 3 weeks after application. In a few lines:
as §2

Data set [12] has as its system beet. Kind of data set: Test Example 4: effect on crop by soil treatment (symbol f). Conditions: for f: beet, effect grade on crop: 320 g/ha. In a few lines: as §3
Data set [13] relates to Stellaria media. Kind of data set: Test Example 4: herbicidal effect by soil treatment (symbol P). An outline of the steps: as §1
The mark [14] stands for this setting: application herbicide amount 320 g/ha.

As for `COC(=O)c1ccc(CON=C(C)CC2CC(O)=C(c3c(C)cc(C)cc3C)C2=O)cc1` (centres unmarked) [1-118], the “H: Echinochloa crus-galli var. crus-galli, herbicidal effect grade” value in data set [1] (320 g/ha) was 4 (Herbicidal ratio of 70% or higher and lower than 90%). Also, the “Effect grade on crop, a: transplanted rice plant” value in data set [2] was 4 (Herbicidal ratio of 70% or higher and lower than 90%). The “N: Amaranthus retroflexus, herbicidal effect grade” value in data set [3] (320 g/ha) is given as 0 (Herbicidal ratio of 5% or lower (almost no effect)). The “G: Setaria viridis, herbicidal effect (criteria 0-5)” value in [4] was 0 (Herbicidal ratio of 5% or lower (almost no effect)). The “F: Digitaria ciliaris, herbicidal effect (criteria 0-5)” value in data set [5] is given as 0 (Herbicidal ratio of 5% or lower (almost no effect)). In data set [6], the “I: Avena fatua, herbicidal effect (criteria 0-5)” value is 3 (Herbicidal ratio of 40% or higher and lower than 70%). Moreover, in [7], the “b: directly sowed rice plant, effect on crop (criteria 0-5)” value was 4 (Herbicidal ratio of 70% or higher and lower than 90%). For the same compound, in [8] (320 g/ha), the “Q: Galium spurium, herbicidal effect grade” value is on record as 0 (Herbicidal ratio of 5% or lower (almost no effect)). For the same compound, in data set [9], the “b: directly sowed rice plant, effect grade on crop” value is given as 5 (Herbicidal ratio of 90% or more (almost completely withered)). Besides, the “M: Abutilon theophrasti, herbicidal effect (criteria 0-5)” value in [10] is given as 0 (Herbicidal ratio of 5% or lower (almost no effect)). Further, in data set [11], the “P: Stellaria media, herbicidal effect (criteria 0-5)” value was 3 (Herbicidal ratio of 40% or higher and lower than 70%). For the same compound, the “f: beet, effect grade on crop” value in data set [12] is 0 (Herbicidal ratio of 5% or lower (almost no effect)). Also, the “P: Stellaria media, herbicidal effect grade” value in [13] (320 g/ha) is reported as 0 (Herbicidal ratio of 5% or lower (almost no effect)).
On to `CC#Cc1cc(C)c(C2=C(O)CC(CC(=NOC)C(C)C)C2=O)c(C)c1` (centres unmarked) [9-006], for which, in data set [1] (setting [14]), the “Herbicidal effect grade, H: Echinochloa crus-galli var. crus-galli” value is recorded as 5 (Herbicidal ratio of 90% or more (almost completely withered)). Moreover, the “a (transplanted rice plant) effect on crop grade” value in data set [2] was 5 (Herbicidal ratio of 90% or more (almost completely withered)). In addition, the “Herbicidal effect grade, N: Amaranthus retroflexus” value in data set [3] (setting [14]) is 2 (Herbicidal ratio of 20% or higher and lower than 40%). The “G: Setaria viridis, herbicidal effect grade” value in data set [4] is 5 (Herbicidal ratio of 90% or more (almost completely withered)). Moreover, the “F: Digitaria ciliaris, herbicidal effect grade” value in data set [5] is 5 (Herbicidal ratio of 90% or more (almost completely withered)). For the same compound, in data set [6], the “I: Avena fatua, herbicidal effect grade” value is 4 (Herbicidal ratio of 70% or higher and lower than 90%). Further, the “b: directly sowed rice plant, effect on crop grade” value in [7] is on record as 5 (Herbicidal ratio of 90% or more (almost completely withered)). Also, the “Herbicidal effect grade, Q: Galium spurium” value in data set [8] (setting [14]) is listed as 0 (Herbicidal ratio of 5% or lower (almost no effect)). Moreover, the “Effect on crop grade, b: directly sowed rice plant” value in data set [9] (setting [14]) is 5 (Herbicidal ratio of 90% or more (almost completely withered)). For the same compound, the “M: Abutilon theophrasti, herbicidal effect grade” value in [10] is listed as 0 (Herbicidal ratio of 5% or lower (almost no effect)). The “P: Stellaria media, herbicidal effect grade” value in data set [11] is 3 (Herbicidal ratio of 40% or higher and lower than 70%). Also, the “Effect on crop grade, f: beet” value in data set [12] (setting [14]) is listed as 0 (Herbicidal ratio of 5% or lower (almost no effect)). Also, the “Herbicidal effect grade, P: Stellaria media” value in data set [13] (setting [14]) was 0 (Herbicidal ratio of 5% or lower (almost no effect)).
As for `CON=C(CC1CC(O)=C(c2c(C)cc(-n3cc(Cl)cn3)cc2C)C1=O)C1CC1` (centres unmarked) [9-007], the “Herbicidal effect grade, H: Echinochloa crus-galli var. crus-galli” value in [1] (setting [14]) is 3 (Herbicidal ratio of 40% or higher and lower than 70%). In [2], the “a (transplanted rice plant) effect on crop grade” value is 5 (Herbicidal ratio of 90% or more (almost completely withered)). In data set [3] (setting [14]), the “Herbicidal effect grade, N: Amaranthus retroflexus” value was 0 (Herbicidal ratio of 5% or lower (almost no effect)). Also, the “G: Setaria viridis, herbicidal effect grade” value in [4] was 5 (Herbicidal ratio of 90% or more (almost completely withered)). The “F: Digitaria ciliaris, herbicidal effect grade” value in data set [5] was 5 (Herbicidal ratio of 90% or more (almost completely withered)). Moreover, the “I: Avena fatua, herbicidal effect grade” value in data set [6] is recorded as 5 (Herbicidal ratio of 90% or more (almost completely withered)). For the same compound, the “b: directly sowed rice plant, effect on crop grade” value in data set [7] was 5 (Herbicidal ratio of 90% or more (almost completely withered)). The “Herbicidal effect grade, Q: Galium spurium” value in data set [8] (setting [14]) was 0 (Herbicidal ratio of 5% or lower (almost no effect)). Besides, the “Effect on crop grade, b: directly sowed rice plant” value in data set [9] (setting [14]) is given as 5 (Herbicidal ratio of 90% or more (almost completely withered)). Further, in data set [10], the “M: Abutilon theophrasti, herbicidal effect grade” value is on record as 0 (Herbicidal ratio of 5% or lower (almost no effect)). Besides, the “P: Stellaria media, herbicidal effect grade” value in data set [11] was 3 (Herbicidal ratio of 40% or higher and lower than 70%). In addition, the “Effect on crop grade, f: beet” value in data set [12] (setting [14]) is 0 (Herbicidal ratio of 5% or lower (almost no effect)). Besides, the “Herbicidal effect grade, P: Stellaria media” value in [13] (setting [14]) was 0 (Herbicidal ratio of 5% or lower (almost no effect)).
`CON=C(CC1CC(OC(=O)N2CCOCC2)=C(c2c(C)cc(C)cc2OC)C1=O)C1CC1` (mixture of isomers) [13-005]: the “H: Echinochloa crus-galli var. crus-galli, herbicidal effect grade” value in data set [1] (setting [14]) is 1 (Herbicidal ratio of 5% or higher and lower than 20%). Besides, in data set [2], the “a (transplanted rice plant) effect on crop grade” value was 5 (Herbicidal ratio of 90% or more (almost completely withered)). Moreover, the “N: Amaranthus retroflexus, herbicidal effect grade” value in data set [3] (setting [14]) was 0 (Herbicidal ratio of 5% or lower (almost no effect)). Besides, the “G: Setaria viridis, herbicidal effect grade” value in data set [4] is given as 5 (Herbicidal ratio of 90% or more (almost completely withered)). Besides, the “F: Digitaria ciliaris, herbicidal effect grade” value in data set [5] is 5 (Herbicidal ratio of 90% or more (almost completely withered)). For the same compound, in data set [6], the “I: Avena fatua, herbicidal effect grade” value is recorded as 5 (Herbicidal ratio of 90% or more (almost completely withered)). Besides, the “b: directly sowed rice plant, effect on crop grade” value in data set [7] was 5 (Herbicidal ratio of 90% or more (almost completely withered)); in data set [9] (setting [14]) it was 1 (Herbicidal ratio of 5% or higher and lower than 20%). Also, the “Q: Galium spurium, herbicidal effect grade” value in data set [8] (setting [14]) is recorded as 0 (Herbicidal ratio of 5% or lower (almost no effect)). Moreover, the “M: Abutilon theophrasti, herbicidal effect grade” value in data set [10] was 0 (Herbicidal ratio of 5% or lower (almost no effect)). Besides, the “P: Stellaria media, herbicidal effect grade” value in data set [11] and in data set [13] (setting [14]) was 0 (Herbicidal ratio of 5% or lower (almost no effect)) in each case. Besides, in data set [12] (setting [14]), the “f: beet, effect on crop grade” value is recorded as 0 (Herbicidal ratio of 5% or lower (almost no effect)).
As to `CC(CC1CC(O)=C(c2c(C)cc(C)cc2C)C1=O)=NOCc1ccccc1[N+](=O)[O-]` (centres unmarked) [1-119], in data set [1] (320 g/ha), the “H: Echinochloa crus-galli var. crus-galli, herbicidal effect grade” value was 5 (Herbicidal ratio of 90% or more (almost completely withered)). Moreover, in [2], the “Effect grade on crop, a: transplanted rice plant” value was 3 (Herbicidal ratio of 40% or higher and lower than 70%). In addition, the “N: Amaranthus retroflexus, herbicidal effect grade” value in [3] (320 g/ha) is listed as 0 (Herbicidal ratio of 5% or lower (almost no effect)). The “G: Setaria viridis, herbicidal effect (criteria 0-5)” value in [4] is given as 5 (Herbicidal ratio of 90% or more (almost completely withered)). The “F: Digitaria ciliaris, herbicidal effect (criteria 0-5)” value in data set [5] is on record as 5 (Herbicidal ratio of 90% or more (almost completely withered)). Besides, in [6], the “I: Avena fatua, herbicidal effect (criteria 0-5)” value was 5 (Herbicidal ratio of 90% or more (almost completely withered)). In [7], the “b: directly sowed rice plant, effect on crop (criteria 0-5)” value is given as 5 (Herbicidal ratio of 90% or more (almost completely withered)). Further, the “Q: Galium spurium, herbicidal effect grade” value in data set [8] (320 g/ha) was 0 (Herbicidal ratio of 5% or lower (almost no effect)). Besides, the “b: directly sowed rice plant, effect grade on crop” value in data set [9] is on record as 5 (Herbicidal ratio of 90% or more (almost completely withered)). Further, the “M: Abutilon theophrasti, herbicidal effect (criteria 0-5)” value in data set [10] was 1 (Herbicidal ratio of 5% or higher and lower than 20%). Also, the “P: Stellaria media, herbicidal effect (criteria 0-5)” value in [11] was 1 (Herbicidal ratio of 5% or higher and lower than 20%). Moreover, the “f: beet, effect grade on crop” value in [12] is given as 0 (Herbicidal ratio of 5% or lower (almost no effect)). Besides, in data set [13] (320 g/ha), the “P: Stellaria media, herbicidal effect grade” value is 0 (Herbicidal ratio of 5% or lower (almost no effect)).
